Experimental data taken from patent US20180339963A1, “ANTICONVULSANT CARBAMATE DERIVATIVES” (Yissum Research Development Company of the Hebrew …, priority 2017, published 2018).
Where two headings read alike, the source gives them in different places. Marks after values point to notes of the source that are not given here.

Experiments:
SWV mice = experiment: Teratogenicity in the SWV mouse model; type: in vivo; conditions: for No. of fetuses with NTDs / No. of implants / No. of live fetuses / No. of resorptions / Fetal weight mean ± SD: day 8.5 of gestation; for Fetal weight mean ± SD: in g (unit assumed); for No. of live fetuses, figure in parentheses / No. of resorptions, figure in parentheses: share of implants; for No. of fetuses with NTDs, figure in parentheses: share of live fetuses
Description: The teratogenic properties of the newly designed compounds (1-10) were evaluated in the highly inbred SWV mice strain known for its high susceptibility to VPA-induced neural tube defects (NTDs). Two month old nulligravid females, were mated overnight with males and examined for the presence of vaginal plugs the following morning, and the onset of gestation was considered to be 10 p.m. of the previous night, the midpoint of the dark cycle. At day 8.5 of gestation, each dam received a single i.p. injection of the test compounds in an equimolar dose of 0.9 or 1.8 mmol/kg and the control dams were injected with vehicle (25% water solution of Cremophore EL, Fluka Biochemica Germany). The volume of injection was 10 μL/g of body weight. […] At gestation day […], the dams were euthanized by carbon dioxide asphyxiation followed by cervical dislocation. After the opening the uterus, the location of all viable fetuses and resorption sites were recorded, and the fetuses were examined for the presence of exencephaly or other gross congenital abnormalities. The teratogenicity data (implantations, resorptions and NTDs) were evaluated for significant differences between the control and treated groups by analyzing the contingency table with Fisher's exact test. Statistical analysis was conducted using GraphPad InStat (version 3.06; GraphPad Software, San Diego, Calif., USA), and the results of all tests were considered to be statistically significant when the p-value was less than 0.05

hCA I = target: T1, hCA I (Homo sapiens, UniProt P00915); experiment: Stopped flow CO2 hydrase assay, hCA I; type: biochemical; conditions: mean from 3 assays, read-out: K1, hCAI
T1 construct: made in house
Description: (§1) An Applied Photophysics stopped-flow instrument has been used for assaying the CA catalysed CO2 hydration activity. Phenol red (at a concentration of 0.2 mM) has been used as indicator, working at the absorbance maximum of 557 nm, with 20 mM Hepes (pH 7.5) as buffer, and 20 mM Na2SO4 (for maintaining constant the ionic strength), following the initial rates of the CA-catalyzed CO2 hydration reaction for a period of 10-100 s. The CO2 concentrations ranged from 1.7 to 17 mM for the determination of the kinetic parameters and inhibition constants. […] The uncatalyzed rates were determined in the same manner and subtracted from the total observed rates. Stock solutions of inhibitor (0.1 mM) were prepared in distilled-deionized water and dilutions up to 0.01 nM were done thereafter with the assay buffer. […] The inhibition constants were obtained by non-linear least-squares methods using PRISM 3 and the Cheng-Prusoff equation, as reported earlier and represent the mean from at least three different determinations. All CA isofoms were recombinant ones obtained in-house.

hCA II = target: T2, hCA II (Homo sapiens, UniProt P00918); experiment: Stopped flow CO2 hydrase assay, hCA II; type: biochemical; conditions: mean from 3 assays, read-out: K1, hCA II
T2 construct: made in house
Description: as §1

hCA IV = target: T3, hCA IV (Homo sapiens, UniProt P22748); experiment: Stopped flow CO2 hydrase assay, hCA IV; type: biochemical; conditions: mean from 3 assays, read-out: K1, hCA IV
T3 construct: made in house
Description: as §1

hCA VII = target: T4, hCA VII (Homo sapiens, UniProt P43166); experiment: Stopped flow CO2 hydrase assay, hCA VII; type: biochemical; conditions: mean from 3 assays, read-out: K1, hCA VII
T4 construct: made in house
Description: as §1

in vivo = conditions: male, CF no. 1 albino, mouse, ip
6 Hz psychomotor seizure = 6 Hz psychomotor seizure test in mice; conditions: for responders at 30 mg/kg / responders at 100 mg/kg / responders at 300 mg/kg: read-out: 6 Hz, number of mice protected/number of mice tested
[1] = test system: maximal electroshock seizure (MES); experiment: Maximal electroshock seizure (MES) test in mice; conditions: for responders at 30 mg/kg / responders at 100 mg/kg / responders at 300 mg/kg / ED50: Mus musculus, ip; for responders at 30 mg/kg / responders at 100 mg/kg / responders at 300 mg/kg: read-out: MES, number of mice protected/number of mice tested; for ED50: read-out: MES-ED50, mice, i.p.
[2] = test system: maximal electroshock seizure (MES); experiment: Maximal electroshock seizure (MES) test in rats; conditions: Rattus norvegicus, po, read-out: MES-ED50, rats, p.o.
[3] = test system: pentylenetetrazol-induced seizure (scMet); experiment: Subcutaneous metrazol seizure test (scMet) in mice; conditions: Mus musculus, ip, read-out: scMet-ED50
[4] = test system: pentylenetetrazol-induced seizure (scMet); experiment: Subcutaneous metrazol seizure test (scMet) in rats; conditions: rats, p.o.
mice = experiment: Neurotoxicity (minimal motor impairment, rotarod) in mice; conditions: mice i.p.

T4 sequence (P43166 whole entry): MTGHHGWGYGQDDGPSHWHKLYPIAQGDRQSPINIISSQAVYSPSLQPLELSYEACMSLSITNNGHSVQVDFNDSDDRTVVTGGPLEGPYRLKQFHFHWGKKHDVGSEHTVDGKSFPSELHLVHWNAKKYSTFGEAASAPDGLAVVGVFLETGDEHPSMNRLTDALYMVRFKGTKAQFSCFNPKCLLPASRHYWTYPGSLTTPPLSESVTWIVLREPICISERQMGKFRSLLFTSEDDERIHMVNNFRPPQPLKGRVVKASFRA
T3 sequence (P22748 19-284): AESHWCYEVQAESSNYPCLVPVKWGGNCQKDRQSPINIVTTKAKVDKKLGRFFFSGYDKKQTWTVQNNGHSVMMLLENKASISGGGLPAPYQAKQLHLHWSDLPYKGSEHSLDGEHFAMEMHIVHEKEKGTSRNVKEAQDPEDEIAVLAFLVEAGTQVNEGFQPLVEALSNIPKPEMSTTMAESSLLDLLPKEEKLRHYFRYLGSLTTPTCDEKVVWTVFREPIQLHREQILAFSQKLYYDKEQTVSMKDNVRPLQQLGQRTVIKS
T1 sequence (P00915 whole entry): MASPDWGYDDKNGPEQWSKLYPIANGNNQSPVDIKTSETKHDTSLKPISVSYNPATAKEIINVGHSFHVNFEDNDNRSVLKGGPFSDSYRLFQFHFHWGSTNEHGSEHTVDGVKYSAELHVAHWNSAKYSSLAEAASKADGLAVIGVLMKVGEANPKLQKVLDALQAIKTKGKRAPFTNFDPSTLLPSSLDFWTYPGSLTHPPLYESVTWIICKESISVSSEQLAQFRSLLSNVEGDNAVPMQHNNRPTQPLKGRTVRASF

For CCCC(COC(=O)Nc1ccc(S(N)(=O)=O)cc1)C(C)CC (centres unmarked) [Compound 1, 3-methyl-2-propylpentyl (4-sulfamoylphenyl)carbamate], the “induction of neural tube defects relative to anticonvulsant effective dose (in words)” value (SWV mice) was “induced neural tube defects only at doses markedly exceeding their effective dose”, the “No. of fetuses with NTDs” value (SWV mice; single i.p. 0.9 mmol/kg) was 1 and the No. of implants (SWV mice; single i.p. 0.9 mmol/kg) was 126. For the same compound, the “No. of live fetuses” value (SWV mice; single i.p. 0.9 mmol/kg) was 94, the No. of resorptions (SWV mice; single i.p. 0.9 mmol/kg) was 32 and the “Fetal weight mean ± SD” value (SWV mice; single i.p. 0.9 mmol/kg) was 0.88 ± 0.03. For the same compound, the No. of live fetuses, figure in parentheses (SWV mice; single i.p. 0.9 mmol/kg) was 74.6%, the No. of resorptions, figure in parentheses (SWV mice; single i.p. 0.9 mmol/kg) was 25.4% and the “No. of fetuses with NTDs, figure in parentheses” value (SWV mice; single i.p. 0.9 mmol/kg) was “(1.1)”. For the same compound, the “No. of fetuses with NTDs” value (SWV mice; single i.p. 1.8 mmol/kg) was 7, the No. of implants (SWV mice; single i.p. 1.8 mmol/kg) was 109 and the “No. of live fetuses” value (SWV mice; single i.p. 1.8 mmol/kg) was 50. The No. of resorptions (SWV mice; single i.p. 1.8 mmol/kg) was 59, the “Fetal weight mean ± SD” value (SWV mice; single i.p. 1.8 mmol/kg) was 0.88 ± 0.06 and the No. of live fetuses, figure in parentheses (SWV mice; single i.p. 1.8 mmol/kg) was 45.9%. The No. of resorptions, figure in parentheses (SWV mice; single i.p. 1.8 mmol/kg) was 54.1%, the “No. of fetuses with NTDs, figure in parentheses” value (SWV mice; single i.p. 1.8 mmol/kg) was “(14.0)*” and the Ki (hCA I) was 89 nM. For the same compound, the Ki (hCA II) was 5.7 nM, the Ki (hCA IV) was > 10000 nM and the Ki (hCA VII) was 865 nM. For the same compound, the melting point was 151 to 152 °C, the TD50 (in vivo) was > 500 mg/kg and the responders at 30 mg/kg (6 Hz psychomotor seizure; Mus musculus, ip, 0.5 h) was 25%. The responders at 100 mg/kg (6 Hz psychomotor seizure; Mus musculus, ip, 0.5 h) was 25%, the responders at 300 mg/kg (6 Hz psychomotor seizure; Mus musculus, ip, 0.5 h) was 0% and the responders at 30 mg/kg (6 Hz psychomotor seizure; Mus musculus, ip, 2 h) was 0%. It also gave a responders at 100 mg/kg (6 Hz psychomotor seizure; Mus musculus, ip, 2 h) of 25%, a responders at 300 mg/kg (6 Hz psychomotor seizure; Mus musculus, ip, 2 h) of 75% and an ED50 (6 Hz psychomotor seizure; Mus musculus, ip, read-out: 6 Hz-ED50, mice, i.p., 32 mA) of 75 mg/kg. For the same compound, the “6 Hz-ED50” value (6 Hz psychomotor seizure; mice, i.p., 32 mA) was 74 mg/kg, the responders at 30 mg/kg ([1]; 0.5 h) was 0% and the responders at 100 mg/kg ([1]; 0.5 h) was 0%. It also gave a responders at 300 mg/kg ([1]; 0.5 h) of 0%, a responders at 30 mg/kg ([1]; 2 h) of 0% and a responders at 100 mg/kg ([1]; 2 h) of 75%. It also gave a responders at 300 mg/kg ([1]; 2 h) of 100%, an ED50 [1] of 136 mg/kg and an MES-ED50 ([1]; mice, i.p.) of 236 mg/kg. The ED50 [2] was 36 mg/kg, the ED50 [3] was > 300 mg/kg and the “scMet ED50” value [4] was “inactive”. For the same compound, the “Tox (motor impairment or sedation), number of animals affected/number of animals tested” value (mice; 30 mg/kg, 0.5 h) was 0/8, the “Tox (motor impairment or sedation), number of animals affected/number of animals tested” value (mice; 30 mg/kg, 2.0 h) was 0/8 and the “Tox (motor impairment or sedation), number of animals affected/number of animals tested” value (mice; 100 mg/kg, 0.5 h) was 0/8. The “Tox (motor impairment or sedation), number of animals affected/number of animals tested” value (mice; 100 mg/kg, 2.0 h) was 0/8, the “Tox (motor impairment or sedation), number of animals affected/number of animals tested” value (mice; 300 mg/kg, 0.5 h) was 0/8 and the “Tox (motor impairment or sedation), number of animals affected/number of animals tested” value (mice; 300 mg/kg, 2.0 h) was 0/8.

In the case of CCC(C)OC(=O)Nc1ccc(S(N)(=O)=O)cc1 (centres unmarked) [Compound 11, sec-butyl(4-sulfamoylphenyl)carbamate], the melting point is reported as 190 to 191 °C, the ED50 [1] is reported as 75 mg/kg and the ED50 [2] is reported as 25 mg/kg.

In the case of CCCCC(CC)COC(=O)Nc1ccc(S(N)(=O)=O)cc1 (centres unmarked) [Compound 2, 2-ethylhexyl (4-sulfamoylphenyl)carbamate], the Ki (hCA I) is reported as 421 nM, the Ki (hCA II) is reported as 8.7 nM and the Ki (hCA IV) is reported as > 10000 nM. For the same compound, the Ki (hCA VII) was > 10000 nM, the melting point was 192 to 195 °C and the responders at 30 mg/kg (6 Hz psychomotor seizure; Mus musculus, ip, 0.5 h) was 0%. The responders at 100 mg/kg (6 Hz psychomotor seizure; Mus musculus, ip, 0.5 h) was 75%, the responders at 300 mg/kg (6 Hz psychomotor seizure; Mus musculus, ip, 0.5 h) was 50% and the responders at 30 mg/kg (6 Hz psychomotor seizure; Mus musculus, ip, 2 h) was 0%. It also gave a responders at 100 mg/kg (6 Hz psychomotor seizure; Mus musculus, ip, 2 h) of 0%, a responders at 300 mg/kg (6 Hz psychomotor seizure; Mus musculus, ip, 2 h) of 25% and a responders at 30 mg/kg ([1]; 0.5 h) of 0%. The responders at 100 mg/kg ([1]; 0.5 h) was 25%, the responders at 300 mg/kg ([1]; 0.5 h) was 25% and the responders at 30 mg/kg ([1]; 2 h) was 0%. The responders at 100 mg/kg ([1]; 2 h) was 0%, the responders at 300 mg/kg ([1]; 2 h) was 25% and the “Tox (motor impairment or sedation), number of animals affected/number of animals tested” value (mice; 30 mg/kg, 0.5 h) was 0/8. For the same compound, the “Tox (motor impairment or sedation), number of animals affected/number of animals tested” value (mice; 30 mg/kg, 2.0 h) was 0/8, the “Tox (motor impairment or sedation), number of animals affected/number of animals tested” value (mice; 100 mg/kg, 0.5 h) was 0/8 and the “Tox (motor impairment or sedation), number of animals affected/number of animals tested” value (mice; 100 mg/kg, 2.0 h) was 0/8. For the same compound, the “Tox (motor impairment or sedation), number of animals affected/number of animals tested” value (mice; 300 mg/kg, 0.5 h) was 0/8 and the “Tox (motor impairment or sedation), number of animals affected/number of animals tested” value (mice; 300 mg/kg, 2.0 h) was 0/8.
